Data reported in PubChem BioAssay (NCI).
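A five-concentration, 48-hour dose response in 96-well plates underlies each endpoint, interpolated linearly between surrounding concentrations. The concentration for 50% growth inhibition is given as GI50. Definition used: TGI = concentration required for complete inhibition of growth.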

Legend:
Experiment in all cases: inhibition of tumour cell growth, NCI panel, 48 h
CAKI-1 renal = system: CAKI-1 renal
HCT-15 colon = system: HCT-15 colon
MOLT-4 leukemia = system: MOLT-4 leukemia
SN12C renal = system: SN12C renal
A498 renal = system: A498 renal
HCC-2998 colon = system: HCC-2998 colon
BT-549 breast = system: BT-549 breast
T-47D breast = system: T-47D breast
NCI-H226 lung = system: NCI-H226 lung
MDA-MB-231 breast = system: MDA-MB-231 breast
SK-MEL-2 melanoma = system: SK-MEL-2 melanoma
EKVX NSCLC = system: EKVX NSCLC
SNB-19 CNS = system: SNB-19 CNS
RPMI-8226 leukemia = system: RPMI-8226 leukemia
U251 CNS = system: U251 CNS
HT29 colon = system: HT29 colon
CCRF-CEM leukemia = system: CCRF-CEM leukemia
K-562 leukemia = system: K-562 leukemia
OVCAR-3 ovarian = system: OVCAR-3 ovarian
786-0 renal = system: 786-0 renal
ACHN renal = system: ACHN renal
DU-145 prostate = system: DU-145 prostate
LOX IMVI melanoma = system: LOX IMVI melanoma
SF-539 CNS = system: SF-539 CNS
SF-295 CNS = system: SF-295 CNS
HL-60(TB) leukemia = system: HL-60(TB) leukemia
NCI-H23 lung = system: NCI-H23 lung
SF-268 CNS = system: SF-268 CNS
SNB-75 CNS = system: SNB-75 CNS
HOP-62 NSCLC = system: HOP-62 NSCLC
RXF 393 renal = system: RXF 393 renal
PC-3 prostate = system: PC-3 prostate
OVCAR-8 ovarian = system: OVCAR-8 ovarian
HOP-92 NSCLC = system: HOP-92 NSCLC
OVCAR-4 ovarian = system: OVCAR-4 ovarian
TK-10 renal = system: TK-10 renal
A549 NSCLC = system: A549 NSCLC
SW-620 colon = system: SW-620 colon
M14 melanoma = system: M14 melanoma
UACC-62 melanoma = system: UACC-62 melanoma
UACC-257 melanoma = system: UACC-257 melanoma
HCT-116 colon = system: HCT-116 colon
SK-MEL-28 melanoma = system: SK-MEL-28 melanoma
MCF7 breast = system: MCF7 breast
SK-OV-3 ovarian = system: SK-OV-3 ovarian
NCI-H460 lung = system: NCI-H460 lung
MALME-3M melanoma = system: MALME-3M melanoma
COLO 205 colon = system: COLO 205 colon
SR leukemia = system: SR leukemia
UO-31 renal = system: UO-31 renal
HS 578T breast = system: HS 578T breast
OVCAR-5 ovarian = system: OVCAR-5 ovarian
NCI/ADR-RES ovarian = system: NCI/ADR-RES ovarian
SK-MEL-5 melanoma = system: SK-MEL-5 melanoma
MDA-MB-435 = system: MDA-MB-435
IGROV1 ovarian = system: IGROV1 ovarian
NCI-H522 lung = system: NCI-H522 lung
KM12 colon = system: KM12 colon

C=C1C(=O)O[C@H]2[C@H]1CC/C(COC(=O)NCc1cccc(OC)c1)=C\CC[C@@]1(C)O[C@@H]21
GI50 (CAKI-1 renal): 1.62 µM | TGI (CAKI-1 renal): 3.62 µM | GI50 (HCT-15 colon): 1.38 µM | TGI (HCT-15 colon): 2.82 µM | GI50 (MOLT-4 leukemia): 2.38 µM | TGI (MOLT-4 leukemia): 7.19 µM | GI50 (SN12C renal): 1.77 µM | TGI (SN12C renal): 4.4 µM | GI50 (A498 renal): 10.5 µM | TGI (A498 renal): 22.4 µM | GI50 (HCC-2998 colon): 15.3 µM | TGI (HCC-2998 colon): 31.1 µM | GI50 (BT-549 breast): 1.51 µM | TGI (BT-549 breast): 3.21 µM | GI50 (T-47D breast): 2.31 µM | TGI (T-47D breast): 6.38 µM | GI50 (NCI-H226 lung): 12.1 µM | TGI (NCI-H226 lung): 27.8 µM | GI50 (MDA-MB-231 breast): 1.95 µM | TGI (MDA-MB-231 breast): 4.22 µM | GI50 (SK-MEL-2 melanoma): 11.4 µM | TGI (SK-MEL-2 melanoma): 25 µM | GI50 (EKVX NSCLC): 2 µM | TGI (EKVX NSCLC): 5.81 µM | GI50 (SNB-19 CNS): 6.42 µM | TGI (SNB-19 CNS): 20 µM | GI50 (RPMI-8226 leukemia): 1.98 µM | TGI (RPMI-8226 leukemia): 6.4 µM | GI50 (U251 CNS): 3.65 µM | TGI (U251 CNS): 14.9 µM | GI50 (HT29 colon): 1.79 µM | TGI (HT29 colon): 3.87 µM | GI50 (CCRF-CEM leukemia): 1.14 µM | TGI (CCRF-CEM leukemia): 4.76 µM | GI50 (K-562 leukemia): 1.93 µM | TGI (K-562 leukemia): 6.79 µM | GI50 (OVCAR-3 ovarian): 1.6 µM | TGI (OVCAR-3 ovarian): 3.29 µM | GI50 (786-0 renal): 1.84 µM | TGI (786-0 renal): 3.61 µM | GI50 (ACHN renal): 1.17 µM | TGI (ACHN renal): 2.41 µM | GI50 (DU-145 prostate): 1.58 µM | TGI (DU-145 prostate): 3.04 µM | GI50 (LOX IMVI melanoma): 1.51 µM | TGI (LOX IMVI melanoma): 3.01 µM | GI50 (SF-539 CNS): 1.55 µM | TGI (SF-539 CNS): 2.98 µM | GI50 (SF-295 CNS): 9.76 µM | TGI (SF-295 CNS): 21.7 µM | GI50 (HL-60(TB) leukemia): 1.21 µM | TGI (HL-60(TB) leukemia): 4.51 µM | GI50 (NCI-H23 lung): 3.07 µM | TGI (NCI-H23 lung): 10.3 µM | GI50 (SF-268 CNS): 3.21 µM | TGI (SF-268 CNS): 12.1 µM | GI50 (SNB-75 CNS): 12.2 µM | TGI (SNB-75 CNS): 24.7 µM | GI50 (HOP-62 NSCLC): 13.2 µM | TGI (HOP-62 NSCLC): 28.3 µM | GI50 (RXF 393 renal): 1.38 µM | TGI (RXF 393 renal): 2.84 µM | GI50 (PC-3 prostate): 2.26 µM | TGI (PC-3 prostate): 6.07 µM | GI50 (OVCAR-8 ovarian): 2.03 µM | TGI (OVCAR-8 ovarian): 5.63 µM | GI50 (HOP-92 NSCLC): 1.32 µM | TGI (HOP-92 NSCLC): 2.96 µM | GI50 (OVCAR-4 ovarian): 2.61 µM | TGI (OVCAR-4 ovarian): 11.1 µM | GI50 (TK-10 renal): 1.85 µM | TGI (TK-10 renal): 3.87 µM | GI50 (A549 NSCLC): 3.1 µM | TGI (A549 NSCLC): 12.8 µM | GI50 (SW-620 colon): 1.52 µM | TGI (SW-620 colon): 3.28 µM | GI50 (M14 melanoma): 2.08 µM | TGI (M14 melanoma): 5.16 µM | GI50 (UACC-62 melanoma): 1.91 µM | TGI (UACC-62 melanoma): 4.24 µM | GI50 (UACC-257 melanoma): 1.96 µM | TGI (UACC-257 melanoma): 5.79 µM | GI50 (HCT-116 colon): 1.27 µM | TGI (HCT-116 colon): 2.76 µM | GI50 (SK-MEL-28 melanoma): 1.84 µM | TGI (SK-MEL-28 melanoma): 3.82 µM | GI50 (MCF7 breast): 2.36 µM | TGI (MCF7 breast): 8.97 µM | GI50 (SK-OV-3 ovarian): 14.9 µM | TGI (SK-OV-3 ovarian): 28.2 µM | GI50 (NCI-H460 lung): 3.3 µM | TGI (NCI-H460 lung): 13.4 µM | GI50 (MALME-3M melanoma): 1.74 µM | TGI (MALME-3M melanoma): 3.53 µM | GI50 (COLO 205 colon): 1.68 µM | TGI (COLO 205 colon): 3.41 µM | GI50 (SR leukemia): 1.3 µM | TGI (SR leukemia): 12 µM | GI50 (UO-31 renal): 1.58 µM | TGI (UO-31 renal): 2.94 µM | GI50 (HS 578T breast): 13 µM | TGI (HS 578T breast): 37.8 µM | GI50 (OVCAR-5 ovarian): 2.17 µM | TGI (OVCAR-5 ovarian): 5.04 µM | GI50 (NCI/ADR-RES ovarian): 3.07 µM | TGI (NCI/ADR-RES ovarian): 12.3 µM | GI50 (SK-MEL-5 melanoma): 1.64 µM | TGI (SK-MEL-5 melanoma): 3.2 µM | GI50 (MDA-MB-435): 1.5 µM | TGI (MDA-MB-435): 3.22 µM | GI50 (IGROV1 ovarian): 2.76 µM | TGI (IGROV1 ovarian): 8.4 µM | GI50 (NCI-H522 lung): 1.22 µM | TGI (NCI-H522 lung): 2.8 µM | GI50 (KM12 colon): 9.98 µM | TGI (KM12 colon): 25.3 µM
